Consider 6 molecules from patent US20220306695A1, “COMPSTATIN ANALOGUES AND THEIR MEDICAL USES” (priority 2019, published 2022).

As usually defined, the half-life is the time in which the quantity being followed falls by half. A higher half-life goes with slow loss. The term IC50 denotes the midpoint of a concentration-inhibition curve.

One series can be described thus: in vivo. Set-up: species or system Cynomolgus monkeys (Macaca fascicularis). The note with it: male, cynomolgus monkey, sc, 1840 nmol/kg, t½. Here is the method:
Healthy male Cynomolgus monkeys (Macaca fascicularis) received single subcutaneous administrations of each test substance. Compounds were formulated in 20 mM phosphate adjusted with NaOH to pH 7.5 and mannitol for isotonicity and dosed at 1840 nmol/kg. Blood was collected from a femoral vein from each animal at the following times: Pre-dose, 1, 2, 4, 8, 24, 48, 72, 96 and 120 h (10 sampling times). Blood was collected into serum separation tubes and allowed to clot at room temperature. The tubes were centrifuged and resulting serum was aliquoted and snap-frozen over dry-ice and stored at nominally −80° C. until analysis. All NHP studies were performed in accordance with animal welfare laws and regulations, including approval of the study by a local ethical review process.
In order to assess pharmacokinetic half-life (t %/), serum samples isolated from non-human primates at specific time points after dosing were analysed for total drug compound after sample preparation by solid phase extraction (SPE) and liquid chromatography mass spectrometry (LC-MS/MS) using analogue internal standard. Single measurement of serum concentrations were used for calculation of the pharmacokinetic parameters using the non-compartmental approach in Phoenix WinNonlin 6.3. Plasma terminal elimination half-life (ty) was determined as In(2)/λz where λz is the magnitude of the slope of the log linear regression of the log concentration versus time profile during the terminal phase.

Series [1] deals with classical complement pathway. Kind of series: In vitro haemolysis assay (inhibition of classical complement pathway). Format: cell-based, human. The note with it: Table 3; human serum, sensitized sheep red blood cells; read-out: IC50[nM], in vitro analysis of inhibition of hemolysis. In short, it runs like this: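 Serially diluted compound (9 points) was preincubated 15 min at room temperature with diluted human serum, titrated per batch to give 70-90% maximal haemolysis, in Tris/casein buffer pH 7.4 with Mg2+/Ca2+. Antibody-sensitized sheep erythrocytes were then added for 30 min at 37° C, and the reaction was stopped with EDTA. Haemolysis was read at A405, with IC50 from 4PL fit.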

The nature of series [2]: Solubility test at 10 mg/mL (visual inspection and light scattering). Format: physicochemical. To be noted: for Solubility, Condition 1 Acetate pH 4: 10 mg/mL compound in 100 mM acetate pH 4; for Solubility, Condition 2 Acetate pH 5: 10 mg/mL compound in 100 mM acetate pH 5; for Solubility, Condition 3 Phosphate pH 6: 10 mg/mL compound in 100 mM phosphate pH 6; for Solubility, Condition 4 Phosphate pH 7: 10 mg/mL compound in 100 mM phosphate pH 7; for Solubility, Condition 5 Phosphate pH 7.5: 10 mg/mL compound in 100 mM phosphate pH 7.5.

Starred links: 1 amine or outer side, 2 acyl side, 3 side chain; linkers in the order of their positions; H or OH if unused. Positions of bridges follow the written chain, without caps; N, C: chain ends. Non-standard residues stand in square brackets, D forms with d. Residues, ends and D or L forms follow the SMILES beside them. Groups on a side chain read outwards from the residue. *: point of attachment. Trp(1-Me) = Cn1cc(C[C@H](N)C(=O)O)c2ccccc21; Abu(4-yl) = O=C([C@H](CC[*:3])N[*:1])[*:2]; C18 diacid = O=C(O)CCCCCCCCCCCCCCCCC(=O)*; C16 diacid = O=C(O)CCCCCCCCCCCCCCC(=O)*; γGlu = O=C(O)[C@H](CCC(=O)[*:2])N[*:1]; AEEA = NCCOCCOCC(=O)O; Sar = CNCC(=O)O Bounds are passed on as bounds.

Consider `CC[C@H](C)[C@@H]1NC(=O)[C@@H](NC(=O)[C@H](Cc2ccccc2)NC(=O)[C@H](CCC(=O)O)NC(=O)[C@H](CO)NC(C)=O)CSCC[C@@H](C(=O)N(C)CC(=O)N[C@@H](CCC(=O)O)C(=O)NCC(=O)N[C@@H](CCC(=O)O)C(=O)NCCOCCOCC(=O)NCCOCCOCC(=O)N[C@@H](CCCCNC(=O)CC[C@H](NC(=O)CNC(=O)CC[C@H](NC(=O)CCCCCCCCCCCCCCCCC(=O)O)C(=O)O)C(=O)O)C(N)=O)NC(=O)[C@H](CCCNC(=N)N)NC(=O)[C@H](Cc2c[nH]cn2)NC(=O)[C@H](CCC(=O)O)NC(=O)CNC(=O)[C@H](Cc2c[nH]c3ccccc23)NC(=O)[C@H](CC(=O)O)NC(=O)[C@H](CCC(N)=O)NC(=O)[C@H](Cc2cn(C)c3ccccc23)NC1=O` [Compound 146, Ac-SEFA(1)I[1-Me-Trp]QDWGEHRhC(1)[Sar]EGE[Peg3][Peg3]-K([17-carboxy-heptadecanoyl][γGlu]G[γGlu])-NH2] (Ac-SEFCI[Trp(1-Me)]QDWGEHR[Abu(4-yl)][Sar]EGE[AEEA][AEEA]K([γGlu-Gly-γGlu-C18 diacid])-NH2; thioether 4-14), for which, in “in vivo”, the half-life is 117 h. The half-inhibitory concentration (IC50) in series [1] is less than 100 nM.
Molecule `CC[C@H](C)[C@@H]1NC(=O)[C@@H](NC(=O)[C@H](Cc2ccc(O)cc2)NC(=O)[C@H](CCC(=O)O)NC(=O)[C@H](CO)NC(=O)CNC(=O)[C@H](CCC(=O)O)NC(=O)CCCCCCCCCCCCCCC(=O)O)CSSC[C@@H](C(=O)N(C)CC(=O)N[C@@H](CCC(=O)O)C(N)=O)NC(=O)[C@H](CCCNC(=N)N)NC(=O)[C@H](Cc2c[nH]cn2)NC(=O)[C@H](CCC(=O)O)NC(=O)CNC(=O)[C@H](Cc2c[nH]c3ccccc23)NC(=O)[C@H](CC(=O)O)NC(=O)[C@H](CCC(N)=O)NC(=O)[C@H](Cc2cn(C)c3ccccc23)NC1=O` [Compound 107] ({C16 diacid}-EGSEYCI[Trp(1-Me)]QDWGEHRC[Sar]E-NH2; disulfide 6-16) showed a half-life in the series “in vivo” of 20.1 h. In addition, in series [2], the “Solubility, Condition 1 Acetate pH 4” value is reported as “− (denotes lack of solubility at the given condition, as UV absorbance at 340 nm exceeds 0.1 AU and/or it is visibly turbid or contains particles.)”; the “Solubility, Condition 2 Acetate pH 5” value was “− (denotes lack of solubility at the given condition, as UV absorbance at 340 nm exceeds 0.1 AU and/or it is visibly turbid or contains particles.)”; the “Solubility, Condition 3 Phosphate pH 6” value was “+ (denotes solubility at the given condition, as determined by UV absorbance being less than 0.1 AU at 340 nm and the sample being clear when manually inspected.)”; the “Solubility, Condition 4 Phosphate pH 7” value was “+ (denotes solubility at the given condition, as determined by UV absorbance being less than 0.1 AU at 340 nm and the sample being clear when manually inspected.)”. In series [2], the “Solubility, Condition 5 Phosphate pH 7.5” value was “+ (denotes solubility at the given condition, as determined by UV absorbance being less than 0.1 AU at 340 nm and the sample being clear when manually inspected.)”. Besides, the IC50 in series [1] is less than 100 nM.
Turning to `CC[C@H](C)[C@@H]1NC(=O)[C@@H](NC(=O)[C@H](Cc2ccccc2)NC(=O)[C@H](CCC(=O)O)NC(=O)[C@H](CO)NC(C)=O)CSSC[C@@H](C(=O)N(C)CC(=O)N[C@@H](CCC(=O)O)C(=O)NCC(=O)N[C@@H](CCC(=O)O)C(=O)N[C@@H](CO)C(=O)N[C@@H](CCC(=O)O)C(=O)N[C@@H](CO)C(=O)N[C@@H](CCCCNC(=O)CC[C@H](NC(=O)CNC(=O)CC[C@H](NC(=O)CCCCCCCCCCCCCCCCC(=O)O)C(=O)O)C(=O)O)C(N)=O)NC(=O)[C@H](CCCNC(=N)N)NC(=O)[C@H](Cc2c[nH]cn2)NC(=O)[C@H](CCC(=O)O)NC(=O)CNC(=O)[C@H](Cc2c[nH]c3ccccc23)NC(=O)[C@H](CC(=O)O)NC(=O)[C@H](CCC(N)=O)NC(=O)[C@H](Cc2cn(C)c3ccccc23)NC1=O` [Compound 139] (Ac-SEFCI[Trp(1-Me)]QDWGEHRC[Sar]EGESESK([γGlu-Gly-γGlu-C18 diacid])-NH2; disulfide 4-14), the half-life in the series “in vivo” is 82 h. Besides, the IC50 in series [1] is less than 100 nM.
As to `CC[C@H](C)[C@@H]1NC(=O)[C@@H](NC(=O)[C@H](Cc2ccc(O)cc2)NC(=O)[C@H](C)NC(=O)[C@H](CO)NC(=O)CNC(=O)[C@H](CCC(=O)O)NC(C)=O)CSSC[C@@H](C(=O)N(C)CC(=O)N[C@@H](CCC(=O)O)C(=O)NCC(=O)N[C@@H](CCCCNC(=O)COCCOCCNC(=O)COCCOCCNC(=O)CC[C@H](NC(=O)CCCCCCCCCCCCCCC(=O)O)C(=O)O)C(N)=O)NC(=O)[C@H](CCCNC(=N)N)NC(=O)[C@H](Cc2c[nH]cn2)NC(=O)[C@H](CCC(=O)O)NC(=O)CNC(=O)[C@H](Cc2c[nH]c3ccccc23)NC(=O)[C@H](CC(=O)O)NC(=O)[C@H](CCC(N)=O)NC(=O)[C@H](Cc2cn(C)c3ccccc23)NC1=O` [Compound 104] (Ac-EGSAYCI[Trp(1-Me)]QDWGEHRC[Sar]EGK([AEEA-AEEA-γGlu-C16 diacid])-NH2; disulfide 6-16), the half-life in the series “in vivo” is 96.3 h. Moreover, in series [2], the “Solubility, Condition 1 Acetate pH 4” value is given as “− (denotes lack of solubility at the given condition, as UV absorbance at 340 nm exceeds 0.1 AU and/or it is visibly turbid or contains particles.)”; the “Solubility, Condition 2 Acetate pH 5” value is “+ (denotes solubility at the given condition, as determined by UV absorbance being less than 0.1 AU at 340 nm and the sample being clear when manually inspected.)”; the “Solubility, Condition 3 Phosphate pH 6” value was “+ (denotes solubility at the given condition, as determined by UV absorbance being less than 0.1 AU at 340 nm and the sample being clear when manually inspected.)”; the “Solubility, Condition 4 Phosphate pH 7” value was “+ (denotes solubility at the given condition, as determined by UV absorbance being less than 0.1 AU at 340 nm and the sample being clear when manually inspected.)”. In series [2], the “Solubility, Condition 5 Phosphate pH 7.5” value is “+ (denotes solubility at the given condition, as determined by UV absorbance being less than 0.1 AU at 340 nm and the sample being clear when manually inspected.)”. For the same molecule, in series [1], the concentration for half-maximal inhibition (IC50) was less than 100 nM.
Consider `CC[C@H](C)[C@@H]1NC(=O)[C@@H](NC(=O)[C@H](Cc2ccccc2)NC(=O)[C@H](CCC(=O)O)NC(=O)[C@H](CO)NC(C)=O)CSSC[C@@H](C(=O)N(C)CC(=O)N[C@@H](CCC(=O)O)C(=O)NCC(=O)N[C@@H](CCC(=O)O)C(=O)NCCOCCOCC(=O)N[C@@H](CCC(=O)O)C(=O)N[C@@H](CO)C(=O)N[C@@H](CCCCNC(=O)CC[C@H](NC(=O)CNC(=O)CC[C@H](NC(=O)CCCCCCCCCCCCCCCCC(=O)O)C(=O)O)C(=O)O)C(N)=O)NC(=O)[C@H](CCCNC(=N)N)NC(=O)[C@H](Cc2c[nH]cn2)NC(=O)[C@H](CCC(=O)O)NC(=O)CNC(=O)[C@H](Cc2c[nH]c3ccccc23)NC(=O)[C@H](CC(=O)O)NC(=O)[C@H](CCC(N)=O)NC(=O)[C@H](Cc2cn(C)c3ccccc23)NC1=O` [Compound 140] (Ac-SEFCI[Trp(1-Me)]QDWGEHRC[Sar]EGE[AEEA]ESK([γGlu-Gly-γGlu-C18 diacid])-NH2; disulfide 4-14), for which the half-life in “in vivo” was 100 h. The concentration for half-maximal inhibition (IC50) in series [1] was less than 100 nM.
The molecule `CC[C@H](C)[C@@H]1NC(=O)[C@@H](NC(=O)[C@H](Cc2ccccc2)NC(=O)[C@H](CCC(=O)O)NC(=O)[C@H](CO)NC(C)=O)CSSC[C@@H](C(=O)N(C)CC(=O)N[C@@H](CCC(=O)O)C(=O)NCC(=O)N[C@@H](CCC(=O)O)C(=O)NCCOCCOCC(=O)NCCOCCOCC(=O)N[C@@H](CCCCNC(=O)CC[C@H](NC(=O)CNC(=O)CC[C@H](NC(=O)CCCCCCCCCCCCCCCCC(=O)O)C(=O)O)C(=O)O)C(N)=O)NC(=O)[C@H](CCCNC(=N)N)NC(=O)[C@H](Cc2c[nH]cn2)NC(=O)[C@H](CCC(=O)O)NC(=O)CNC(=O)[C@H](Cc2c[nH]c3ccccc23)NC(=O)[C@H](CCC(=O)O)NC(=O)[C@H](CCC(N)=O)NC(=O)[C@H](Cc2cn(C)c3ccccc23)NC1=O` [Compound 124] (Ac-SEFCI[Trp(1-Me)]QEWGEHRC[Sar]EGE[AEEA][AEEA]K([γGlu-Gly-γGlu-C18 diacid])-NH2; disulfide 4-14) gave a half-life in the series “in vivo” of 112 h. In series [1], the half-maximal inhibitory concentration (IC50) is less than 100 nM.
